Experimental data from patent publication US20220348565A1, “PHARMACEUTICAL COMPOUNDS” (SENTINEL ONCOLOGY LIMITED, priority 2019, published 2022).

Experiments:
Assay in all cases: DiscoverX KinomeScreen kinase selectivity competition binding assay
[1] = target: T1, panel of ninety-seven kinases (Homo sapiens, UniProt P29597); conditions: TYK2; read-out: % Ctrl @ 3 μM
T1 construct: purchased DiscoverX; host or cells: T7 phage in E. coli (BL21-derived) for most kinases; HEK-293 for the rest
How it was run: (§1)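 Site-directed competition binding: kinase (T7 phage-tagged or HEK-293-expressed, DNA-tagged) captured on immobilized biotinylated ligand beads, with compound at 3000 nM. Bound kinase eluted and quantified by qPCR. Reported as % Ctrl, with DMSO as 100% and control compound as 0%.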

[2] = target: T2, panel of ninety-seven kinases (Homo sapiens, UniProt P04626); conditions: ERBB2; read-out: % Ctrl @ 3 μM
T2 construct: purchased DiscoverX; host or cells: T7 phage in E. coli (BL21-derived) for most kinases; HEK-293 for the rest
T2 sequence (P04626 23-1255): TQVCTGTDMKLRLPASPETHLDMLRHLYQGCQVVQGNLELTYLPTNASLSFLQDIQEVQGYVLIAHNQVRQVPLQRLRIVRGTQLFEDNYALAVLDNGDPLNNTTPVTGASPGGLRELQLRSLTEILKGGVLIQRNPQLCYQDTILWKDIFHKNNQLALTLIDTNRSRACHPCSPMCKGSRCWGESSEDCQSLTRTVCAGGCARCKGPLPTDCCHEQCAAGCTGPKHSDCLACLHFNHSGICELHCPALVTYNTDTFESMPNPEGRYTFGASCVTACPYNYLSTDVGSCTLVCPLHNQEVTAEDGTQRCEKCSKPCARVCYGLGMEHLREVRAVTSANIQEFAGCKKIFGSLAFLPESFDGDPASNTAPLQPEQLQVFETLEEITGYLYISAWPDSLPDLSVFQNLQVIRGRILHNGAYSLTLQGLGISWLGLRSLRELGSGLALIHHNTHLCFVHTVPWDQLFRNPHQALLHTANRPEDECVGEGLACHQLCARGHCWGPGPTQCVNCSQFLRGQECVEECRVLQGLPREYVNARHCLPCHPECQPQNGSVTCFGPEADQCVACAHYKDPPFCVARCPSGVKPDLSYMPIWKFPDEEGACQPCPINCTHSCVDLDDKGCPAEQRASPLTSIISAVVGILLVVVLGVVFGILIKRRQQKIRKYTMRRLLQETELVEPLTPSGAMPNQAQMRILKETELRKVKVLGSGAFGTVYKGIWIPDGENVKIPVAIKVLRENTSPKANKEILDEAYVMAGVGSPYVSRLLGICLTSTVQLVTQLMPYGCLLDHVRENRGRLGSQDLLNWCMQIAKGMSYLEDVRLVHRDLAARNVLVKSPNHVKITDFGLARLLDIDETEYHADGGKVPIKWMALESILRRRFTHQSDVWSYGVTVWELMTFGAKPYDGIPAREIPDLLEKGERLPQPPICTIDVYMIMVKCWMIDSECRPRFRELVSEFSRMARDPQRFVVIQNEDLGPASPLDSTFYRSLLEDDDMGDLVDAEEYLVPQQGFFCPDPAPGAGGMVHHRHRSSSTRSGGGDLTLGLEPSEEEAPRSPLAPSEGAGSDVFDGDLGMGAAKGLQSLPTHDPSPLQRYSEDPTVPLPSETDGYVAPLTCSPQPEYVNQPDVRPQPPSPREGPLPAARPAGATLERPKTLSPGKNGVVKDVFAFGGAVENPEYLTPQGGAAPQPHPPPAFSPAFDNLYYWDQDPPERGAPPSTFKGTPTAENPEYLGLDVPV
How it was run: as §1

[3] = target: T3, panel of ninety-seven kinases (Homo sapiens, UniProt O96013); conditions: PAK4; read-out: % Ctrl @ 3 μM
T3 construct: purchased DiscoverX; host or cells: T7 phage in E. coli (BL21-derived) for most kinases; HEK-293 for the rest
How it was run: as §1

[4] = target: T4, panel of ninety-seven kinases (Homo sapiens, UniProt P07333); conditions: CSF1R; read-out: % Ctrl @ 3 μM
T4 construct: purchased DiscoverX; host or cells: T7 phage in E. coli (BL21-derived) for most kinases; HEK-293 for the rest
How it was run: as §1

[5] = target: T5, panel of ninety-seven kinases (Homo sapiens, UniProt P27448); conditions: MARK3; read-out: % Ctrl @ 3 μM
T5 construct: purchased DiscoverX; host or cells: T7 phage in E. coli (BL21-derived) for most kinases; HEK-293 for the rest
How it was run: as §1

[6] = target: T6, panel of ninety-seven kinases (Homo sapiens, UniProt O14965); conditions: AURKA; read-out: % Ctrl @ 3 μM
T6 construct: purchased DiscoverX; host or cells: T7 phage in E. coli (BL21-derived) for most kinases; HEK-293 for the rest
How it was run: as §1

[7] = target: T7, panel of ninety-seven kinases (Homo sapiens, UniProt P42336); conditions: PIK3CA; read-out: % Ctrl @ 3 μM
T7 construct: purchased DiscoverX; host or cells: T7 phage in E. coli (BL21-derived) for most kinases; HEK-293 for the rest
How it was run: as §1

[8] = target: T8, panel of ninety-seven kinases (Homo sapiens, UniProt Q9BVS4); conditions: RIOK2; read-out: % Ctrl @ 3 μM
T8 construct: purchased DiscoverX; host or cells: T7 phage in E. coli (BL21-derived) for most kinases; HEK-293 for the rest
How it was run: as §1

[9] = target: T9, panel of ninety-seven kinases (Homo sapiens, UniProt Q15831); conditions: STK11; read-out: % Ctrl @ 3 μM
T9 construct: purchased DiscoverX; host or cells: T7 phage in E. coli (BL21-derived) for most kinases; HEK-293 for the rest
How it was run: as §1

[10] = target: T10, panel of ninety-seven kinases (Homo sapiens, UniProt P35968); conditions: KDR; read-out: % Ctrl @ 3 μM
T10 construct: purchased DiscoverX; host or cells: T7 phage in E. coli (BL21-derived) for most kinases; HEK-293 for the rest
How it was run: as §1

[11] = target: T11, panel of ninety-seven kinases (Homo sapiens, UniProt P06213); conditions: INSR; read-out: % Ctrl @ 3 μM
T11 construct: purchased DiscoverX; host or cells: T7 phage in E. coli (BL21-derived) for most kinases; HEK-293 for the rest
How it was run: as §1

[12] = target: T12, panel of ninety-seven kinases (Homo sapiens, UniProt P08069); conditions: IGF1R; read-out: % Ctrl @ 3 μM
T12 construct: purchased DiscoverX; host or cells: T7 phage in E. coli (BL21-derived) for most kinases; HEK-293 for the rest
T12 sequence (P08069 31-1367): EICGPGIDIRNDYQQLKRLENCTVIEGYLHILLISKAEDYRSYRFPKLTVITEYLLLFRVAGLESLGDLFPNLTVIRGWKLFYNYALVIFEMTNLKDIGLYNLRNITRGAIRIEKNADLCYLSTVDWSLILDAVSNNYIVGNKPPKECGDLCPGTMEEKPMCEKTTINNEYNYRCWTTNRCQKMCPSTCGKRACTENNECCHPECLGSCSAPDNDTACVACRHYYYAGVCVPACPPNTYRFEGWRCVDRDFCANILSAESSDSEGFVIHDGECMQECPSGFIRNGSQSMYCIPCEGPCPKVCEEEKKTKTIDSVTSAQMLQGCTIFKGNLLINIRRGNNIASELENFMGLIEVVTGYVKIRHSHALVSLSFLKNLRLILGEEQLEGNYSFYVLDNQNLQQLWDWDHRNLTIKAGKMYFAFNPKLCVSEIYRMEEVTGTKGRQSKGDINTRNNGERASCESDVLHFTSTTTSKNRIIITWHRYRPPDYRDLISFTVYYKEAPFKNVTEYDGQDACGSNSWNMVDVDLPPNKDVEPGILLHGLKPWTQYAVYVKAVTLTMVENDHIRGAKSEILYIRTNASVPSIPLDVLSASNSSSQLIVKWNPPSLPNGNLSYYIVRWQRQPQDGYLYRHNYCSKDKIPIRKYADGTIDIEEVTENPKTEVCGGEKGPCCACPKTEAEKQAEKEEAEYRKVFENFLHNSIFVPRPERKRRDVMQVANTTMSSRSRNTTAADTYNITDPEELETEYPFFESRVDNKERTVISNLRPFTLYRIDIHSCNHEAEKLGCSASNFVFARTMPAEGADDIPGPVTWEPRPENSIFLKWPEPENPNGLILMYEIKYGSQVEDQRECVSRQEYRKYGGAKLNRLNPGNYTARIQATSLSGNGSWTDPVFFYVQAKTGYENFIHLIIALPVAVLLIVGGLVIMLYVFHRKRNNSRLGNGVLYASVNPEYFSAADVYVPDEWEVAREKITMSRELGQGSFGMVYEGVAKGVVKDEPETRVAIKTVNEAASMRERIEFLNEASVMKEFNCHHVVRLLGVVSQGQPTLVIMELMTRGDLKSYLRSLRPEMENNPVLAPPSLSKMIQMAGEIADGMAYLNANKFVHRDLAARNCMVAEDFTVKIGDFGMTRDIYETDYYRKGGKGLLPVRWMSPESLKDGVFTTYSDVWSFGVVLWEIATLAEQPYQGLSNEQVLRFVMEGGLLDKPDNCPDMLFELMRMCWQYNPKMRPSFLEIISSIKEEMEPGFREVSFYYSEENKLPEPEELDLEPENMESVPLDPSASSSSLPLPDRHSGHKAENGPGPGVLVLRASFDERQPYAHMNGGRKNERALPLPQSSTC
How it was run: as §1

[13] = target: T13, panel of ninety-seven kinases (Homo sapiens, UniProt Q15759); conditions: MAPK11; read-out: % Ctrl @ 3 μM
T13 construct: purchased DiscoverX; host or cells: T7 phage in E. coli (BL21-derived) for most kinases; HEK-293 for the rest
T13 sequence (Q15759 whole entry): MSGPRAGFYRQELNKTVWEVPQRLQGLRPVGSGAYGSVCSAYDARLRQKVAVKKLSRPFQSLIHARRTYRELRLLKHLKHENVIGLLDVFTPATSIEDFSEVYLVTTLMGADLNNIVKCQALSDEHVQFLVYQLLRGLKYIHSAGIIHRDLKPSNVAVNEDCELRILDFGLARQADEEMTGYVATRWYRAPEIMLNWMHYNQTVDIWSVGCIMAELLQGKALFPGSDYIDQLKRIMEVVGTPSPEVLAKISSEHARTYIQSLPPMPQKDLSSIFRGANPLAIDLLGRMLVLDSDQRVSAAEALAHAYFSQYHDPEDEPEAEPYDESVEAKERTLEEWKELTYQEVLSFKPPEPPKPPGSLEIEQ
How it was run: as §1

[14] = target: T14, panel of ninety-seven kinases (Homo sapiens, UniProt P43403); conditions: ZAP70; read-out: % Ctrl @ 3 μM
T14 construct: purchased DiscoverX; host or cells: T7 phage in E. coli (BL21-derived) for most kinases; HEK-293 for the rest
How it was run: as §1

[15] = target: T15, panel of ninety-seven kinases (Homo sapiens, UniProt Q13177); conditions: PAK2; read-out: % Ctrl @ 3 μM
T15 construct: purchased DiscoverX; host or cells: T7 phage in E. coli (BL21-derived) for most kinases; HEK-293 for the rest
How it was run: as §1

[16] = target: T16, panel of ninety-seven kinases (Homo sapiens, UniProt O14757); conditions: CHEK1; read-out: % Ctrl @ 3 μM
T16 construct: purchased DiscoverX; host or cells: T7 phage in E. coli (BL21-derived) for most kinases; HEK-293 for the rest
T16 sequence (O14757 whole entry): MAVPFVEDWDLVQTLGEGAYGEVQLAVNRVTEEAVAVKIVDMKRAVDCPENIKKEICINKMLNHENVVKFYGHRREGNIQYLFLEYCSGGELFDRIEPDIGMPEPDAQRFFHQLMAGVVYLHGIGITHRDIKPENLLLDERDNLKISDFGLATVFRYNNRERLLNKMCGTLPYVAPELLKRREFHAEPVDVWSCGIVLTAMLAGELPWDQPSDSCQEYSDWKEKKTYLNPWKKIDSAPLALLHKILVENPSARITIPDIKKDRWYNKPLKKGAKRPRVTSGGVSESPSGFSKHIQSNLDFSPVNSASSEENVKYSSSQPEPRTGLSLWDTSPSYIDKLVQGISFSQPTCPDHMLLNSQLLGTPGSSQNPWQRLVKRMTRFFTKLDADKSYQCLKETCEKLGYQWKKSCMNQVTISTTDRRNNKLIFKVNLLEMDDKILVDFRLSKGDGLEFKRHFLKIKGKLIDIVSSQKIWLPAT
How it was run: as §1

[17] = target: T17, panel of ninety-seven kinases (Homo sapiens, UniProt P50750); conditions: CDK9; read-out: % Ctrl @ 3 μM
T17 construct: purchased DiscoverX; host or cells: T7 phage in E. coli (BL21-derived) for most kinases; HEK-293 for the rest
How it was run: as §1

[18] = target: T18, panel of ninety-seven kinases (Homo sapiens, UniProt P50613); conditions: CDK7; read-out: % Ctrl @ 3 μM
T18 construct: purchased DiscoverX; host or cells: T7 phage in E. coli (BL21-derived) for most kinases; HEK-293 for the rest
How it was run: as §1

[19] = target: T19, panel of ninety-seven kinases (Homo sapiens, UniProt Q02156); conditions: PRKCE; read-out: % Ctrl @ 3 μM
T19 construct: purchased DiscoverX; host or cells: T7 phage in E. coli (BL21-derived) for most kinases; HEK-293 for the rest
How it was run: as §1

[20] = target: T20, panel of ninety-seven kinases (Homo sapiens, UniProt P27361); conditions: MAPK3; read-out: % Ctrl @ 3 μM
T20 construct: purchased DiscoverX; host or cells: T7 phage in E. coli (BL21-derived) for most kinases; HEK-293 for the rest
T20 sequence (P27361 whole entry): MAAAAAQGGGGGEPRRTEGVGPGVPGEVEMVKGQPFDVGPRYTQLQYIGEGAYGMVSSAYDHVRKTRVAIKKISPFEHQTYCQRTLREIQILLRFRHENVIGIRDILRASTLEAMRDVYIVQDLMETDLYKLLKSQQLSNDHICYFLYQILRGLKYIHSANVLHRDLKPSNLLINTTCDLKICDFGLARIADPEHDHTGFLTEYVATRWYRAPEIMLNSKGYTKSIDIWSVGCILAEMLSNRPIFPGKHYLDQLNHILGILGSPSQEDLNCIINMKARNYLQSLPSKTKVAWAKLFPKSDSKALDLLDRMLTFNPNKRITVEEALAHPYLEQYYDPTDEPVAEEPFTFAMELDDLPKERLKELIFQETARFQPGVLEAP
How it was run: as §1

[21] = target: T21, panel of ninety-seven kinases (Homo sapiens, UniProt O00750); conditions: PIK3C2B; read-out: % Ctrl @ 3 μM
T21 construct: purchased DiscoverX; host or cells: T7 phage in E. coli (BL21-derived) for most kinases; HEK-293 for the rest
How it was run: as §1

Measured: percent of control kinase binding to immobilized ligand at 3 µM

T1 sequence (P29597 whole entry): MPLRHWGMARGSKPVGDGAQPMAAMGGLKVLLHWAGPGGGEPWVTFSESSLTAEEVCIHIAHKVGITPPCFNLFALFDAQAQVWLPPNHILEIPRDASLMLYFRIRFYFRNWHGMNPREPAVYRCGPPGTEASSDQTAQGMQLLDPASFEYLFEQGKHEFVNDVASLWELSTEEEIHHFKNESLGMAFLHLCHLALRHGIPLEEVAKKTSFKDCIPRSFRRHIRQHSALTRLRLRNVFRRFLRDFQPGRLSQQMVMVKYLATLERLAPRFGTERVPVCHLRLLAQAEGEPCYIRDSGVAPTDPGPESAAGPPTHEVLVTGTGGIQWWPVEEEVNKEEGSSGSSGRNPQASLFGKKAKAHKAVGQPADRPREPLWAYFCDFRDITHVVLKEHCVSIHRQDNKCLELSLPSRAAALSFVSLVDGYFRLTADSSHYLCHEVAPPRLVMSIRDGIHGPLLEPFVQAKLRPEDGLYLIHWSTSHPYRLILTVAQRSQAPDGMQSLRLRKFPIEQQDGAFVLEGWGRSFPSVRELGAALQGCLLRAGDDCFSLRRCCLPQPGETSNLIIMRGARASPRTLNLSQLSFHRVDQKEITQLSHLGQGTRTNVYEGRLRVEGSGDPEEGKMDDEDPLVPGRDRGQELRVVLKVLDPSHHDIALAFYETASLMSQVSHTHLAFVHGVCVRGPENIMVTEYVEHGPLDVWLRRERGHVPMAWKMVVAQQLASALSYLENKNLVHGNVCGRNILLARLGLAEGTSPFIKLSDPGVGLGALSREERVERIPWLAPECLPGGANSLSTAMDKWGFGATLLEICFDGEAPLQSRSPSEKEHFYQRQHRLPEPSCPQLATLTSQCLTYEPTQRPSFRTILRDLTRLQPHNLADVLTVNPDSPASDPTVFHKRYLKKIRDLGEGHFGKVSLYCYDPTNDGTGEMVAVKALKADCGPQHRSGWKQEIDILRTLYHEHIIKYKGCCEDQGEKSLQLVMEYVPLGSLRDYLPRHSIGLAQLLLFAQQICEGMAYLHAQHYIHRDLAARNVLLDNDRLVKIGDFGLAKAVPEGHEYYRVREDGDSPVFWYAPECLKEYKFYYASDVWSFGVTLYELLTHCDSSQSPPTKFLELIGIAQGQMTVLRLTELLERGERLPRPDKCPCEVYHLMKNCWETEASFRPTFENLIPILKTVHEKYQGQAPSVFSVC

CN(C)CCNC(=O)c1ccc(-c2ccc(-c3ccc(Cl)cc3)n2-c2ccccc2C(F)(F)F)cc1 (single isomer, unassigned) [Atropisomer A-2, 4-[5-(4-chlorophenyl)-1-[2-(trifluoromethyl)phenyl]pyrrol-2-yl]-N-[2-(dimethylamino)ethyl]benzamide]
97%: [17]
99%: [13] | [19] | [20]
66%: [2]
81%: [9]
98%: [6]
92%: [14]
100%: all other assays above
